PubChem BioAssay AID230 (DTP/NCI, 2004)
Values joined by “and” are separate entries in the source; they are usually repeats but may differ in a detail not shown here. Identical values can stand only once. Toxic doses and inconclusive results are not listed.

Test system: C3H/He mice, Gardner lymphosarcoma 6C3HED ip, survival T/C
Test: NCI In Vivo Anticancer Drug Screen. Data for tumor model Lymphosarcoma Gardner 6C3HED (intraperitoneal) in C3H/He mice
Conditions: higher = longer survival
Procedure: The antitumor activity of compounds was measured in mice bearing transplantable tumors. Survival or tumor size were measured and the results are expressed as the measurement made in the treated group (T) divided by the measurement made in the vehicle treated control group (C). The tumor model used in this assay is Lymphosarcoma Gardner 6C3HED (intraperitoneal) in C3H/He mice

[1] = endpoint: survival time, mean or median, dose: 25.0 mg/kg/injection, schedule: Q01DX010 (ip), vehicle: saline
[2] = endpoint: survival time, mean or median, dose: 50.0 mg/kg/injection, schedule: Q01DX010 (ip), vehicle: saline
[3] = endpoint: survival time, mean or median, dose: 100.0 mg/kg/injection, schedule: Q01DX010 (ip), vehicle: saline
[4] = endpoint: survival time, mean or median, dose: 200.0 mg/kg/injection, schedule: Q01DX010 (ip), vehicle: saline
[5] = endpoint: survival time, mean or median, dose: 4.0 mg/kg/injection, schedule: Q01DX010 (ip), vehicle: saline
[6] = endpoint: survival time, mean or median, dose: 1.0 mg/kg/injection, schedule: Q01DX010 (ip), vehicle: saline
[7] = endpoint: survival time, mean or median, dose: 2.0 mg/kg/injection, schedule: Q01DX010 (ip), vehicle: saline

With CC1CCOS(=O)O1 (centres undefined) the T/C (endpoint: survival time, mean or median, dose: 2.5 mg/kg/injection, schedule: Q01DX010 (ip), vehicle: saline) was 93 % of control, the T/C (endpoint: survival time, mean or median, dose: 5.0 mg/kg/injection, schedule: Q01DX010 (ip), vehicle: saline) was 93 % of control and the T/C (endpoint: survival time, mean or median, dose: 10.0 mg/kg/injection, schedule: Q01DX010 (ip), vehicle: saline) was 92 % of control and 103 % of control. The T/C (endpoint: survival time, mean or median, dose: 20.0 mg/kg/injection, schedule: Q01DX010 (ip), vehicle: saline) was 89 % of control and 96 % of control.

In the case of Cc1n[nH]c(=O)[nH]c1=O, the T/C (endpoint: survival time, mean or median, dose: 125.0 mg/kg/injection, schedule: Q01DX010 (ip), vehicle: saline) was 106 % of control, the T/C (endpoint: survival time, mean or median, dose: 250.0 mg/kg/injection, schedule: Q01DX010 (ip), vehicle: saline) was 90 % of control and the T/C (endpoint: survival time, mean or median, dose: 1000.0 mg/kg/injection, schedule: Q01DX010 (ip), vehicle: saline) was 90 % of control.

For C[C@H]1C(=O)O[C@@H]2CCN3CC=C(COC(=O)[C@](C)(O)[C@@]1(C)O)[C@H]23, the T/C (endpoint: survival time, mean or median, dose: 3.13 mg/kg/injection, schedule: Q01DX010 (ip), vehicle: saline) was 100 % of control and 107 % of control, the T/C (endpoint: survival time, mean or median, dose: 6.25 mg/kg/injection, schedule: Q01DX010 (ip), vehicle: saline) was 93 % of control and 103 % of control and the T/C (endpoint: survival time, mean or median, dose: 12.5 mg/kg/injection, schedule: Q01DX010 (ip), vehicle: saline) was 100 % of control and 103 % of control. For the same compound, the T/C [1] was 111 % of control.

OC(CBr)C(O)C(O)C(O)CBr (centres undefined) was tested, and the T/C [1] was 88 % of control and 96 % of control, the T/C [2] was 88 % of control and 110 % of control and the T/C [3] was 100 % of control and 110 % of control. The T/C [4] was 88 % of control and 110 % of control.

For CN(C)/N=N/c1nc[nH]c1C(N)=O, the T/C [1] was 300 % of control, the T/C [2] was 300 % of control and 311 % of control and the T/C [3] was 266 % of control and 300 % of control. For the same compound, the T/C [4] was 118 % of control and 296 % of control.

With C[C@]12C=CC(=O)C=C1CC[C@@H]1[C@@H]2[C@@H](O)C[C@@]2(C)[C@H]1CC[C@]2(O)C(=O)CO the T/C (endpoint: survival time, mean or median, dose: 12.5 mg/kg/injection, schedule: Q01DX010 (sc), vehicle: steriod suspending solution) was 95 % of control and 100 % of control, the T/C (endpoint: survival time, mean or median, dose: 25.0 mg/kg/injection, schedule: Q01DX010 (sc), vehicle: steriod suspending solution) was 90 % of control and 110 % of control and the T/C (endpoint: survival time, mean or median, dose: 50.0 mg/kg/injection, schedule: Q01DX010 (sc), vehicle: steriod suspending solution) was 95 % of control and 105 % of control. For the same compound, the T/C (endpoint: survival time, mean or median, dose: 100.0 mg/kg/injection, schedule: Q01DX010 (sc), vehicle: steriod suspending solution) was 95 % of control and 110 % of control.

With CN1CC[C@]23c4c5ccc(O)c4O[C@H]2C(=O)CC[C@H]3[C@H]1C5 the T/C [5] was 103 % of control, the T/C (endpoint: survival time, mean or median, dose: 8.0 mg/kg/injection, schedule: Q01DX010 (ip), vehicle: saline) was 100 % of control and the T/C (endpoint: survival time, mean or median, dose: 16.0 mg/kg/injection, schedule: Q01DX010 (ip), vehicle: saline) was 103 % of control. For the same compound, the T/C (endpoint: survival time, mean or median, dose: 32.0 mg/kg/injection, schedule: Q01DX010 (ip), vehicle: saline) was 90 % of control and 100 % of control.

In the case of CO[C@H](C(=O)[C@@H](O)[C@@H](C)O)[C@@H]1Cc2cc3cc(OC4CC(OC5CC(O)C(O)C(C)O5)C(O)C(C)O4)c(C)c(O)c3c(O)c2C(=O)[C@H]1OC1CC(OC2CC(OC3CC(C)(O)C(O)C(C)O3)C(O)C(C)O2)C(O)C(C)O1 (some centres undefined), the T/C (endpoint: survival time, mean or median, dose: 0.13 mg/kg/injection, schedule: Q01DX010 (ip), vehicle: saline) was 111 % of control, the T/C (endpoint: survival time, mean or median, dose: 0.25 mg/kg/injection, schedule: Q01DX010 (ip), vehicle: saline) was 123 % of control and the T/C [6] was 300 % of control. For the same compound, the T/C [7] was 188 % of control.

In the case of CC[C@@H](c1ccc(O)cc1)[C@@H](CC)c1ccc(O)cc1, the T/C (endpoint: survival time, mean or median, dose: 25.0 mg/kg/injection, schedule: Q01DX010 (sc), vehicle: water) was 96 % of control, the T/C (endpoint: survival time, mean or median, dose: 50.0 mg/kg/injection, schedule: Q01DX010 (sc), vehicle: water) was 93 % of control and the T/C (endpoint: survival time, mean or median, dose: 100.0 mg/kg/injection, schedule: Q01DX010 (sc), vehicle: water) was 93 % of control.

Nc1ncnc2c1ncn2C1OC(COP(=O)(O)O)C(O)C1O (centres undefined) was tested, and the T/C (endpoint: median survival time, dose: 18.3 mg/kg/injection, schedule: Q01DX003 (ip), vehicle: saline) was 100 % of control, the T/C (endpoint: median survival time, dose: 18.3 mg/kg/injection, schedule: Q12HX006 (ip), vehicle: saline) was 109 % of control and the T/C (endpoint: median survival time, dose: 36.6 mg/kg/injection, schedule: Q01DX003 (ip), vehicle: saline) was 95 % of control. For the same compound, the T/C (endpoint: median survival time, dose: 36.6 mg/kg/injection, schedule: Q12HX006 (ip), vehicle: saline) was 111 % of control, the T/C (endpoint: median survival time, dose: 73.2 mg/kg/injection, schedule: Q01DX003 (ip), vehicle: saline) was 90 % of control and the T/C (endpoint: median survival time, dose: 73.3 mg/kg/injection, schedule: Q12HX006 (ip), vehicle: saline) was 104 % of control.

Nc1nc(=S)c2ncn(C3OC(CO)C(O)C3O)c2[nH]1 (centres undefined) was tested, and the T/C (endpoint: median survival time, dose: 0.5 mg/kg/injection, schedule: Q01DX009 (ip), vehicle: saline) was 114 % of control, the T/C (endpoint: median survival time, dose: 1.0 mg/kg/injection, schedule: Q01DX009 (ip), vehicle: saline) was 100 % of control and the T/C (endpoint: median survival time, dose: 2.0 mg/kg/injection, schedule: Q01DX009 (ip), vehicle: saline) was 105 % of control. The T/C (endpoint: median survival time, dose: 4.0 mg/kg/injection, schedule: Q01DX009 (ip), vehicle: saline) was 94 % of control, the T/C (endpoint: median survival time, dose: 8.0 mg/kg/injection, schedule: Q01DX009 (ip), vehicle: saline) was 96 % of control and the T/C (endpoint: survival time, mean or median, dose: 0.5 mg/kg/injection, schedule: Q01DX010 (ip), vehicle: saline) was 119 % of control. For the same compound, the T/C [6] was 112 % of control and 115 % of control, the T/C [7] was 100 % of control and 111 % of control and the T/C [5] was 96 % of control.
